According to paper PMC10046961, “High-Throughput Screening Assay for Detecting Drug-Induced Changes in Synchronized Neuronal Oscillations and Potential Seizure Risk Based on Ca^2+ Fluorescence Measurements in Human Induced Pluripotent Stem Cell (hiPSC)-Derived Neuronal 2D and 3D Cultures” (Cells, 2023):
Where two headings read alike, the source gives them in different places. Marks after values point to notes of the source that are not given here.

What was measured:
[1] = ref PharmaPendium, cited from earlier work
[2] = system: hiPSC-derived neurons co-cultured with human primary astrocytes in 3D; assay: Ca2+ transient oscillation assay (FDSS), 3D spheroids; format: cell-based; settings: 60 min
Method in brief: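 Fura-2 fluorescence was read twice for 20 min each: a baseline 10 min after 0.04% DMSO, and again 60 min after compound addition at nominal final concentration. The 3D co-cultures (1:1 hiPSC neurons from a donor and human astrocytes, 8000 each) matured 5 weeks in BrainPhys medium after a 1-week differentiation.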

[3] = system: hiPSC-derived neurons co-cultured with human primary astrocytes in 2D; assay: Ca2+ transient oscillation assay (FDSS), 2D co-culture; format: cell-based; settings: for effect on peak number / Ca2+ neuronal oscillations, in words: 2D format; for activation at 0.37 µM / activation at 1.11 µM / activation at 3.33 µM / activation at 10 µM / activation at 3.7 µM / activation at 11.11 µM / activation at 33.33 µM / activation at 100 µM / activation at 300 µM: Homo sapiens, 1 h, 60 min
Method in brief: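 Cultures were 10,000 CW50065 hiPSC excitatory neurons plus 2500 primary human astrocytes per well. Recordings used Cal-520 dye in HBSS/HEPES/glucose at 37 °C, with a 470/540 nm read at 2 Hz. Oscillations were stabilized with 0.04% DMSO, read for 20 min, then read again 60 min after compound addition (final DMSO 0.1%).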

[4] = Table 1, peak plasma concentration in men, free therapeutic Cmax
[5] = Table 2, highest plasma concentration in humans after the therapeutic dose
[6] = read-out: Area under the curve - 2D Mean
[7] = read-out: Peak amplitude - 2D Mean
[8] = read-out: Peak-to-peak interval - 2D Mean

In the case of `CC[C@@H]1C(=O)OC[C@@H]1Cc1cncn1C` [Pilocarpine], the “Free Cmax” value [1, 4] is listed as 30 to 550 nM, the “Free Cmax” value [1, 5] is listed as 30 to 550 nM and the “Area under the curve - 3D Mean” value ([2]; 0.37 µM) is listed as 141.5 % change from baseline. For the same compound, the “Peak Number—3D Mean” value ([2]; 0.37 µM) was 16.7 % change from baseline, the “Peak amplitude - 3D Mean” value ([2]; 0.37 µM) was 115.6 % change from baseline and the “Peak width - 3D Mean” value ([2]; 0.37 µM) was 6.3 % change from baseline. For the same compound, the “Peak-to-peak interval - 3D Mean” value ([2]; 0.37 µM) was −10.1 % change from baseline, the “Area under the curve - 3D Mean” value ([2]; 1.11 µM) was 173.5 % change from baseline and the “Peak Number—3D Mean” value ([2]; 1.11 µM) was 23.9 % change from baseline. For the same compound, the “Peak amplitude - 3D Mean” value ([2]; 1.11 µM) was 145.8 % change from baseline, the “Peak width - 3D Mean” value ([2]; 1.11 µM) was 6.7 % change from baseline and the “Peak-to-peak interval - 3D Mean” value ([2]; 1.11 µM) was −10.0 % change from baseline. For the same compound, the “Area under the curve - 3D Mean” value ([2]; 3.33 µM) was 168.7 % change from baseline, the “Peak Number—3D Mean” value ([2]; 3.33 µM) was 12.9 % change from baseline and the “Peak amplitude - 3D Mean” value ([2]; 3.33 µM) was 135.3 % change from baseline. For the same compound, the “Peak width - 3D Mean” value ([2]; 3.33 µM) was 10.2 % change from baseline, the “Peak-to-peak interval - 3D Mean” value ([2]; 3.33 µM) was −3.3 % change from baseline and the “Area under the curve - 3D Mean” value ([2]; 10 µM) was 145.2 % change from baseline. The “Peak Number—3D Mean” value ([2]; 10 µM) was 23.1 % change from baseline, the “Peak amplitude - 3D Mean” value ([2]; 10 µM) was 122.5 % change from baseline and the “Peak width - 3D Mean” value ([2]; 10 µM) was 7.0 % change from baseline. The “Peak-to-peak interval - 3D Mean” value ([2]; 10 µM) was −12.6 % change from baseline, the “effect on peak number / Ca2+ neuronal oscillations, in words” value [3] was “significantly increased peak number” and the activation at 0.37 µM [3, 6] was 26.7%. For the same compound, the activation at 0.37 µM ([3]; read-out: Peak Number—2D Mean) was 11.5%, the activation at 0.37 µM [3, 7] was 9.3% and the activation at 0.37 µM ([3]; read-out: Peak width - 2D Mean) was 19.2%. The activation at 0.37 µM [3, 8] was 1.3%, the activation at 1.11 µM [3, 6] was 38.8% and the activation at 1.11 µM ([3]; read-out: Peak Number—2D Mean) was 8.3%. It also gave an activation at 1.11 µM [3, 7] of 8%, an activation at 1.11 µM ([3]; read-out: Peak width - 2D Mean) of 35.7% and an activation at 1.11 µM [3, 8] of 5.8%. The activation at 3.33 µM [3, 6] was 26.7%, the activation at 3.33 µM ([3]; read-out: Peak Number—2D Mean) was 34.3% and the activation at 3.33 µM [3, 7] was 5.8%. It also gave an activation at 3.33 µM ([3]; read-out: Peak width - 2D Mean) of 23.2%, an activation at 3.33 µM [3, 8] of -9.2% and an activation at 10 µM [3, 6] of 22.8%. For the same compound, the activation at 10 µM ([3]; read-out: Peak Number—2D Mean) was -19.2%, the activation at 10 µM [3, 7] was 3.8% and the activation at 10 µM ([3]; read-out: Peak width - 2D Mean) was 23%. For the same compound, the activation at 10 µM [3, 8] was 29.8%.
In the case of `NCCc1c[nH]c2ccc(O)cc12` [Serotonin], the “Free Cmax” value [1, 4] is given as 1000 to 2000 nM, the “Free Cmax” value [1, 5] is given as 1000 to 2000 nM and the “Area under the curve - 3D Mean” value ([2]; 3.7 µM) is given as −19.4 % change from baseline. For the same compound, the “Peak Number—3D Mean” value ([2]; 3.7 µM) was −70.7 ** % change from baseline, the “Peak amplitude - 3D Mean” value ([2]; 3.7 µM) was −4.3 % change from baseline and the “Peak width - 3D Mean” value ([2]; 3.7 µM) was −54.0 % change from baseline. The “Peak-to-peak interval - 3D Mean” value ([2]; 3.7 µM) was −58.0 % change from baseline, the “Area under the curve - 3D Mean” value ([2]; 11.11 µM) was 19.8 % change from baseline and the “Peak Number—3D Mean” value ([2]; 11.11 µM) was −69.1 ** % change from baseline. The “Peak amplitude - 3D Mean” value ([2]; 11.11 µM) was 33.7 % change from baseline, the “Peak width - 3D Mean” value ([2]; 11.11 µM) was −31.8 % change from baseline and the “Peak-to-peak interval - 3D Mean” value ([2]; 11.11 µM) was −37.9 % change from baseline. The “Area under the curve - 3D Mean” value ([2]; 33.33 µM) was −21.3 % change from baseline, the “Peak Number—3D Mean” value ([2]; 33.33 µM) was −82.1 ** % change from baseline and the “Peak amplitude - 3D Mean” value ([2]; 33.33 µM) was −3.1 % change from baseline. For the same compound, the “Peak width - 3D Mean” value ([2]; 33.33 µM) was −52.3 % change from baseline, the “Peak-to-peak interval - 3D Mean” value ([2]; 33.33 µM) was 29.2 % change from baseline and the “Area under the curve - 3D Mean” value ([2]; 100 µM) was −21.1 % change from baseline. For the same compound, the “Peak Number—3D Mean” value ([2]; 100 µM) was −80.3 ** % change from baseline, the “Peak amplitude - 3D Mean” value ([2]; 100 µM) was −10.3 % change from baseline and the “Peak width - 3D Mean” value ([2]; 100 µM) was −55.4 % change from baseline. The “Peak-to-peak interval - 3D Mean” value ([2]; 100 µM) was −82.0 % change from baseline, the “effect on peak number / Ca2+ neuronal oscillations, in words” value [3] was “significantly reduced peak number” and the activation at 3.7 µM [3, 6] was 12.8%. It also gave an activation at 3.7 µM ([3]; read-out: Peak Number—2D Mean) of -23.4%, an activation at 3.7 µM [3, 7] of -4.9% and an activation at 3.7 µM ([3]; read-out: Peak width - 2D Mean) of 17.3%. It also gave an activation at 3.7 µM [3, 8] of 28.4%, an activation at 11.11 µM [3, 6] of 11.1% and an activation at 11.11 µM ([3]; read-out: Peak Number—2D Mean) of -1.7%. It also gave an activation at 11.11 µM [3, 7] of -13.7%, an activation at 11.11 µM ([3]; read-out: Peak width - 2D Mean) of 18.3% and an activation at 11.11 µM [3, 8] of 65.8%. For the same compound, the activation at 33.33 µM [3, 6] was -8.9%, the activation at 33.33 µM ([3]; read-out: Peak Number—2D Mean) was -43.8% and the activation at 33.33 µM [3, 7] was -27.1%. For the same compound, the activation at 33.33 µM ([3]; read-out: Peak width - 2D Mean) was -1.4%, the activation at 33.33 µM [3, 8] was 36.4% and the activation at 100 µM [3, 6] was -2.6%. The activation at 100 µM ([3]; read-out: Peak Number—2D Mean) was -45.8%, the activation at 100 µM [3, 7] was -16.6% and the activation at 100 µM ([3]; read-out: Peak width - 2D Mean) was 11.4%. It also gave an activation at 100 µM [3, 8] of 55.3%.
For `Cn1c(=O)c2[nH]cnc2n(C)c1=O` [Theophylline], the “Free Cmax” value [1, 4] is given as 8000 to 15000 nM, the “Free Cmax” value [1, 5] is given as 8000 to 15000 nM and the “Area under the curve - 3D Mean” value ([2]; 11.11 µM) is given as 156.1 % change from baseline. For the same compound, the “Peak Number—3D Mean” value ([2]; 11.11 µM) was 2.0 % change from baseline, the “Peak amplitude - 3D Mean” value ([2]; 11.11 µM) was 121.2 % change from baseline and the “Peak width - 3D Mean” value ([2]; 11.11 µM) was 11.1 % change from baseline. The “Peak-to-peak interval - 3D Mean” value ([2]; 11.11 µM) was −4.0 % change from baseline, the “Area under the curve - 3D Mean” value ([2]; 33.33 µM) was 171.1 % change from baseline and the “Peak Number—3D Mean” value ([2]; 33.33 µM) was 53.5 * % change from baseline. The “Peak amplitude - 3D Mean” value ([2]; 33.33 µM) was 142.1 % change from baseline, the “Peak width - 3D Mean” value ([2]; 33.33 µM) was 12.2 % change from baseline and the “Peak-to-peak interval - 3D Mean” value ([2]; 33.33 µM) was −21.2 % change from baseline. For the same compound, the “Area under the curve - 3D Mean” value ([2]; 100 µM) was 148.8 % change from baseline, the “Peak Number—3D Mean” value ([2]; 100 µM) was 78.1 * % change from baseline and the “Peak amplitude - 3D Mean” value ([2]; 100 µM) was 99.6 % change from baseline. For the same compound, the “Peak width - 3D Mean” value ([2]; 100 µM) was 21.3 % change from baseline, the “Peak-to-peak interval - 3D Mean” value ([2]; 100 µM) was −37.1 % change from baseline and the “Area under the curve - 3D Mean” value ([2]; 300 µM) was 134.2 % change from baseline. The “Peak Number—3D Mean” value ([2]; 300 µM) was 114.2 * % change from baseline, the “Peak amplitude - 3D Mean” value ([2]; 300 µM) was 89.4 % change from baseline and the “Peak width - 3D Mean” value ([2]; 300 µM) was 29.3 % change from baseline. For the same compound, the “Peak-to-peak interval - 3D Mean” value ([2]; 300 µM) was −45.7 % change from baseline, the “effect on peak number / Ca2+ neuronal oscillations, in words” value [3] was “significantly increased peak number” and the activation at 11.11 µM [3, 6] was 32.3%. It also gave an activation at 11.11 µM ([3]; read-out: Peak Number—2D Mean) of -5.7%, an activation at 11.11 µM [3, 7] of 12.7% and an activation at 11.11 µM ([3]; read-out: Peak width - 2D Mean) of 22.8%. The activation at 11.11 µM [3, 8] was 24.3%, the activation at 33.33 µM [3, 6] was 41.7% and the activation at 33.33 µM ([3]; read-out: Peak Number—2D Mean) was 24.7%. The activation at 33.33 µM [3, 7] was 15.3%, the activation at 33.33 µM ([3]; read-out: Peak width - 2D Mean) was 31.2% and the activation at 33.33 µM [3, 8] was -5.2%. The activation at 100 µM [3, 6] was 29.7%, the activation at 100 µM ([3]; read-out: Peak Number—2D Mean) was 39.3% and the activation at 100 µM [3, 7] was 10%. It also gave an activation at 100 µM ([3]; read-out: Peak width - 2D Mean) of 24.3%, an activation at 100 µM [3, 8] of -26.3% and an activation at 300 µM [3, 6] of 72.8%. The activation at 300 µM ([3]; read-out: Peak Number—2D Mean) was 118%, the activation at 300 µM [3, 7] was 6% and the activation at 300 µM ([3]; read-out: Peak width - 2D Mean) was 113%. It also gave an activation at 300 µM [3, 8] of -46.8%.
